Assay [1] has as its system aorta thoracica of a male Wister rat. In words: Blood vessel relaxing action (relaxation of phenylephrine-contracted, endothelium-denuded spiral strip). The settings on record: concentration inhibiting 50% of the contraction achieved by phenylephrine (10⁻⁶ M), compound 10⁻⁸ to 10⁻⁵ M added cumulatively, 37°C, read-out: IC₅₀. As for the experimental part:
Preparation of the extracted blood vessel sample and the experiment were conducted by the methods of Toda et al. described in J. Cardiovasc. Pharmacol., 7,1118 (1985). The aorta thoracica of a male Wister rat was used as a sample. To be more specific, a spiral piece was prepared by peeling endothelium about 1 cm long from the artery to provide the sample. The endothelium was peeled off by rubbing with a swab. A Krebs-Hensterite solution of 37°C saturated with 95% O₂ and 5% CO₂ was used as a nutrient solution. After application of 1g as suspending load to the sample, changes in tension were measured by rectigraph via an isometric transducer. After the aorta thoracica was contracted by phenylephrine (10⁻⁶ M), a compound to be examined (an example compound) of 10⁻⁸ to 10⁻⁵ M was cumulatively added to determine the relaxing action of the compound quantitatively. The relaxing effect of the example compound was determined in terms of the concentration IC₅₀ of the compound required for inhibiting 50% of the contraction achieved by phenylephrine (10⁻⁶ M). Lema Kalin was used as reference compound A. On the other hand, reference compound B was provided by N'-cyano-N-(trans-6-cyano-3,4-dihydro-2,2-dimethyl-3-hydroxy-2H-1-benzopyran-4-yl)-benzamidine. […]

The next assay deals with coronary blood flow rate. In words: Action on the coronary blood flow rate in dog (anesthetized, left coronary artery perfused with femoral arterial blood). The settings on record: administered into the coronary artery; for ED 50: dose increasing coronary blood flow rate by 50% of the reaction caused by niphedipine 1 µg (set at 100%); for Durationng: time during which the compound produced at least 50% of its efficacy at the ED₅₀ dosage. It counts as in vivo. On the procedure: Dogs with ether sex were anesthetized with pentobarbital (30 mg/kg,intravenous administration), followed by intravenous heparin administration (500 U/kg) to the dogs under artificial respiration. Then, according to Yago's method described in Folia pharmacol. japon., 57,380 (1961), the left coronary artery was perfused with the right femoral arterial blood so as to measure the blood perfusion amount with an electromagnetic blood flow meter. The example compound was administered into the coronary artery by using a micro syringe just before a stainless steel cannula inserted into the coronary artery. The increase in the coronary blood flow rate caused by the example compound was determined by standardizing the reactivity among the specimen subject, with the reaction caused by the niphedipine administration (1 µg) into the coronary artery of the specimen subject being set at 100%. To be more specific, the intensity of the action due to the example compound was determined in terms of ED₅₀ required for increasing the coronary blood flow rate by 50% on the basis of the reaction caused by niphedipine administered into the coronary artery in an amount of 1 µg. Further, the duration of the effect produced by the example compound was determined in terms of the time (minutes) during which the compound produced at least 50% of efficacy on the basis that the efficacy of the compound in the ED₅₀ dosage noted above was set at 100%. […]

SMILES strings stand for the structures. Read-outs that look alike come from different tables or passages of the source.

The source of these data is patent publication EP0536424A1, “NOVEL BENZOPYRAN DERIVATIVE” (Japan Tobacco Inc., priority 1991, dated 1992).

With `CC1(C)Oc2ccc(C#N)cc2[C@@H](NC(=NC#N)c2cccnc2)[C@@H]1O` (relative stereo) [Example 3, N'-cyano-N-(trans-6-cyano-3,4-dihydro-2,2-dimethyl-3-hydroxy-2H-1benzopyran-4-yl]-3-pyridinecarboxamidine], in assay [1] (Rattus norvegicus), the IC50 stood at 600 nM. In the assay on coronary blood flow rate, this compound came in with an ED 50 of 1.9 µg and a Durationng of 4.0 minuted.

As for `CC1(C)Oc2ccc(C#N)cc2[C@@H](N2CCCC2=O)[C@@H]1O` [Reference Compound A, Lema Kalin, reference compound], in assay [1], the IC50 is 400 nM. For the same compound, in the assay with coronary blood flow rate, the ED 50 was found to be 1.1 µg and the Durationng is 2.5 minuted.

In the case of `CC1(C)Oc2ccc(C#N)cc2[C@@H](NC(=N[N+](=O)[O-])c2ccccn2)[C@@H]1O` (relative stereo) [Example 14, N-(trans-6-cyano-3,4-dihydro-2,2-dimethyl-3-hydroxy-2H-1-benzopyran-4yl)-N'-nitro-2-pyridinecarboxamidine], in assay [1] (Rattus norvegicus), the IC50 was 1000 nM.

Turning to `CC1(C)Oc2ccc(C#N)cc2[C@@H](NC(=NC#N)c2ccccc2)[C@@H]1O` (relative stereo) [Reference Compound B, N'-cyano-N-(trans-6-cyano-3,4-dihydro-2,2-dimethyl-3-hydroxy-2H-1-benzopyran-4-yl)-benzamidine, reference compound], the IC50 in assay [1] (Rattus norvegicus) stood at 1000 nM. In the assay with coronary blood flow rate, this compound showed an ED 50 of 4.2 µg and a Durationng of 1.9 minuted.

Take `CC1(C)Oc2ccc(C#N)cc2[C@@H](NC(=NC#N)c2ccc(F)cc2)[C@@H]1O` (relative stereo) [Example 16, N'-cyano-N-(trans-6-cyano-3,4-dihydro-2,2-dimethyl-3-hydroxy-2H-1-benzopyran-4-yl)-4-fluorobenzamidine]: in assay [1] (Rattus norvegicus), the IC50 came to 60 nM. In the assay with coronary blood flow rate, this compound yielded an ED 50 of 1.5 µg and a Durationng of 2.5 minuted.
